# Key:
# LFA-1 (αLβ2, CD11a/CD18) = assay: Adhesion of LFA-1-expressing HEK293 cells to immobilized peptide; assay type: cell-based, Human; settings: peptide immobilized at 10 μM, 30 min at 37 °C
# Procedure: (§1) Fig. 3 Adhesion of Mac-1-expressing cells to Dyn A and Dyn B. a, Mac-1-expressing and wild-type HEK293 cells were labeled with calcein and 5x10^4 cells were added to the wells coated with different concentrations of the Dyn A. After 30 min at 37 °C, nonadherent cells were removed and fluorescence was measured. The data shown are means of triplicate determinations, and error bars represent S.E. The figure is representative of 8 experiments. b , adhesion of HEK293 cells expressing Mac-1, LFA and the I-less form of Mac-1 to Dyn A and Dyn B immobilized at 10 μM was determined as described in A. c, calcein-labeled Mac-1-HEK293 cells were preincubated without or with 10 μg/ml of anti-αM mAb 44a or 1 μg/ml NIF for 15 minutes. For testing the role of glucosaminoglycans in cell adhesion, dynorphin A-coated wells were preincubated with 100 μl of 10 μg/ml of chondroitin sulfate A, chondroitin sulfate B and heparin. […]
# (§2) Adhesion assays were performed essentially as described previously. […] Fluorescence was measured in a CytoFluorII fluorescence plate reader (Perceptive Biosystems, Framingham, MA). […] After aspirating the solution, labeled cells were added and cell adhesion was analyzed as above.
# [1] = tested on: mouse peritoneal macrophages; settings: cited from earlier work
# Text: Apart from their effects on κ-opioid receptors on neurons, Dyn A exerts numerous effects on leukocytes, particularly myeloid cells. […] Similar to other cationic peptides, Dyn A can exert some effects essential for host defense.
# I-less form of Mac-1 = assay: Adhesion of HEK293 cells expressing the I-less form of Mac-1; assay type: cell-based, Human; settings: peptide immobilized at 10 μM, 30 min at 37 °C
# Procedure: as §1, §2
# U937 monocytic cells = assay: Chemotaxis migration assay of U937 cells to Dyn A agarose gel; assay type: cell-based, human; settings: 10 μM Dyn A in agarose
# Procedure: Fig. 7 Chemotactic response of U937 cells to Dyn A. a, schematic representation of the experimental format. U937 cells (5x10^4) were placed in the center of the coverslip between two agar gels, one containing Dyn A and control gel without Dyn A. After 2 h at 37 °C, a series of photographs was taken in the direction of migration at 1-mm intervals to count the number of migrating cells. b , representative images after 2 h of migration show the cells within the starting point (marked with a cross; right panels) and at the border of the Dyn A-containing agar drop (left panels). […] Two bottom panels show the experimental condition with no Dyn A gradient. c, quantification of U937 cells migrated from the initial point after 2 h based on the results shown in A (right panel). Migration of control untreated U937 cells that completely migrated from the initial point of cell placement was assigned a value of 100 %. In contrast, there was no cell migration without a Dyn A gradient (0 %). […] A representative experiment is shown. d, distribution of U937 cells between two gels: Dyn A-containing (on the left) and without Dyn A (on the right). “0” on abscissa corresponds to the initial point where cells were loaded and the numbers show the distance that cells migrated in both directions from the starting point. All cells in each of 10 consecutive fields towards the Dyn A-containing and empty gels were counted and plotted as a distance from the starting point
# Chemotaxis assays using U937 monocytic cells were performed on 22 × 22 mm cover slips. 1 % agarose (Life Technologies, Carlsbad, CA) was dissolved in HBSS by heating. After cooling, the agarose solution was mixed with Dyn A to obtain a final concentration of 10 μM. A 10 μl drop of warm agarose solution containing Dyn A was placed at one corner of the cover glass at ~1.5 mm from the edge. A control agarose drop was placed diagonally at the opposite corner of the cover glass. Agarose was allowed to solidify for 5 min, and the cover glasses were placed into wells of the 6-well plate filled with 5 ml of RPMI 1640 + 10 % FBS. A 10-μl aliquot of U937 cells (5x10^4) was loaded in the center of the cover glass and the plate was incubated for 2 h at 37 °C in a humidified atmosphere containing 5 % CO2. In this experimental format, the cells sediment approximately 5 min after loading, forming an ~4 mm circle, and begin to migrate towards the Dyn A-containing agarose drop. […] The photographs were taken at 1-mm intervals in the direction of cell migration towards the dynorphin-containing or control agarose drops without dynorphin A. The number of cells at the starting point and in each of 10 consecutive fields towards the dynorphin-containing and empty gels were counted and plotted as a distance from the starting point.
# [2] = tested on: μ- and δ-opioid receptors; set-up: method as in PMID 8624732; settings: cited from earlier work
compound,measurement,setting,value
CC[C@H](C)[C@H](NC(=O)[C@H](CCCNC(=N)N)NC(=O)[C@H](CCCNC(=N)N)NC(=O)[C@H](CC(C)C)NC(=O)[C@H](Cc1ccccc1)NC(=O)CNC(=O)CNC(=O)[C@@H](N)Cc1ccc(O)cc1)C(=O)N[C@@H](CCCNC(=N)N)C(=O)N1CCC[C@H]1C(=O)N[C@@H](CCCCN)C(=O)N[C@@H](CC(C)C)C(=O)N[C@@H](CCCCN)C(=O)N[C@@H](Cc1c[nH]c2ccccc12)C(=O)N[C@@H](CC(=O)O)C(=O)N[C@@H](CC(N)=O)C(=O)N[C@@H](CCC(N)=O)C(=O)O [Dyn A],Adhesion of LFA-1-HEK293 cells,"LFA-1 (αLβ2, CD11a/CD18)",13 ± 2%
same,Phagocytosis by mouse peritoneal macrophages,[1],enhance phagocytosis by mouse peritoneal macrophages
same,Adhesion of HEK293 cells expressing the I-less form of Mac-1,I-less form of Mac-1,7 ± 1%
same,Distance travelled by majority of untreated cells towards Dyn A,"U937 monocytic cells; 2 h, no inhibitor",~ 8 mm
same,Chemotaxis of U937 cells (in words),U937 monocytic cells; 2 h at 37 °C,efficiently migrated along the gradient of Dyn A
same,μ- and δ-opioid receptor binding,[2],can bind to μ- and δ-opioid receptors

# Source: article PMC4481117 (Molecular Pain, 2015)
